By mortality is commonly meant the share of the test organisms that died. For orientation: LD50 means the dose expected to kill half of the subjects tested.

This passage reports mortality and LD50 results from ChEMBL document CHEMBL3045009, “Synthesis and Biological Activity of the Functional Derivatives of 3- and 4-(Dimethyl-aminomethyl)-1,2-dithiolanes” (1992).

Holding throughout (format): functional
One assay relates to Nilaparvata lugens. Nature of the assay: Insecticidal activity against Nilaparvata lugens (brown planthopper) assessed as mortality at 50 ppm. The following applies: for mortality at 50 ppm: Nilaparvata lugens.
The subject of another assay is Tetranychus urticae. Briefly: Acaricidal activity against Tetranychus urticae (two-spotted spider mite) assessed as mortality at 500 ppm. The following applies: for mortality at 500 ppm: Tetranychus urticae.
Assay [1] relates to Chilo suppressalis. Briefly: Insecticidal activity against Chilo suppressalis (rice stem borer) assessed as mortality at 50 ug/g administered as topical application.
In another assay the test system is Culex pipiens molestus. Briefly: Insecticidal activity against Culex pipiens molestus assessed as mortality at 5 ppm. The conditions noted are these: for mortality at 5 ppm: Culex pipiens.
Assay [2] relates to Chilo suppressalis. Nature of the assay: Insecticidal activity against Chilo suppressalis (rice stem borer) assessed as mortality compound administered as topical application.
The next assay deals with Spodoptera litura. Nature of the assay: Insecticidal activity against Spodoptera litura assessed as mortality at 500 ppm. The following applies: for mortality at 500 ppm: Spodoptera litura.

In the case of `CN(C)C1CSSC1.O=C(O)C(=O)O` [NEREISTOXIN HYDROGEN OXALATE], the mortality at 50 ppm in the assay with Nilaparvata lugens came out at 100%. The mortality at 500 ppm with Tetranychus urticae came to 50%; with Spodoptera litura, 30%. For the same compound, the mortality in the assay with Chilo suppressalis [1] is 100%. Besides, the mortality at 5 ppm in the assay with Culex pipiens molestus was determined as 100%. Besides, the LD50 in the assay on Chilo suppressalis [2] was found to be 1.7 mg/kg.
In the case of `CN(C)C(CSC(N)=O)CSC(N)=O.Cl` [CARTAP HYDROCHLORIDE], in the assay with Nilaparvata lugens, the mortality at 50 ppm amounted to 100%. Besides, the mortality at 500 ppm is 37% in the assay with Tetranychus urticae and 35% in the assay on Spodoptera litura. Further, in the assay on Chilo suppressalis [1], the mortality came to 100%. Also, in the assay with Culex pipiens molestus, the mortality at 5 ppm turned out to be 100%. Moreover, the LD50 in the assay with Chilo suppressalis [2] is 2.3 mg/kg.
On to `CCC(=O)SCC(CSC(=O)CC)CN(C)C`, for which the mortality in the assay with Nilaparvata lugens turned out to be 70%; with Tetranychus urticae, 100%; in the assay on Chilo suppressalis [1] it was 100%; with Culex pipiens molestus it was 100%; in the assay on Spodoptera litura it was 40%. In addition, the LD50 in the assay with Chilo suppressalis [2] is 7.6 mg/kg.
`CN(C)CC(CCSS(=O)(=O)c1ccccc1)SS(=O)(=O)c1ccccc1` (centres undefined): the mortality at 50 ppm with Nilaparvata lugens turned out to be 30%. In addition, the mortality at 500 ppm in the assay on Tetranychus urticae was found to be 100%; with Spodoptera litura, 0%. The mortality in the assay on Chilo suppressalis [1] is 100%. In addition, in the assay with Culex pipiens molestus, the mortality at 5 ppm was 100%. For the same compound, the 50% lethal dose (LD50) with Chilo suppressalis [2] was 11.6 mg/kg.
For the compound `CNC(=S)SCCC(CN(C)C)SC(=S)NC` (centres undefined), the mortality at 50 ppm in the assay on Nilaparvata lugens came to 70%. Moreover, the mortality at 500 ppm with Tetranychus urticae is 80%; in the assay on Spodoptera litura, 10%. The mortality in the assay on Chilo suppressalis [1] came out at 100%. Also, the mortality at 5 ppm in the assay on Culex pipiens molestus is 70%. Also, the LD50 with Chilo suppressalis [2] worked out at 15.8 mg/kg.
As for `CN(C)CC1CSC(C(=O)c2ccccc2)(C(=O)c2ccccc2)SC1`, the mortality was 100% with Nilaparvata lugens; 80% in the assay on Tetranychus urticae; 100% in the assay with Chilo suppressalis [1]; 100% in the assay on Culex pipiens molestus; 0% in the assay with Spodoptera litura. The median lethal dose (LD50) in the assay with Chilo suppressalis [2] amounted to 13.5 mg/kg.
Regarding `CC(C)NC(=O)SCCC(CN(C)C)SC(=O)NC(C)C` (centres undefined), the mortality at 50 ppm in the assay on Nilaparvata lugens came out at 45%. In addition, the mortality at 500 ppm was found to be 50% with Tetranychus urticae and 0% in the assay on Spodoptera litura. The mortality in the assay on Chilo suppressalis [1] is given as 100%. The mortality at 5 ppm in the assay with Culex pipiens molestus came out at 65%. Further, in the assay on Chilo suppressalis [2], the LD50 was 24.5 mg/kg.
With `CN(C)CC1CCSS1.O=C(O)C(=O)O` (centres undefined), the mortality at 50 ppm in the assay with Nilaparvata lugens is 80%. Besides, the mortality at 500 ppm worked out at 100% in the assay with Tetranychus urticae and 30% in the assay with Spodoptera litura. Further, in the assay on Chilo suppressalis [1], the mortality is 100%. In addition, in the assay with Culex pipiens molestus, the mortality at 5 ppm turned out to be 100%. For the same compound, the LD50 with Chilo suppressalis [2] was found to be 4.3 mg/kg.
For `CN(C)CC1CSSSC1.O=C(O)C(=O)O`, the mortality at 50 ppm in the assay on Nilaparvata lugens was 100%. In addition, the mortality at 500 ppm in the assay with Tetranychus urticae and in the assay on Spodoptera litura was 100% throughout. For the same compound, in the assay on Chilo suppressalis [1], the mortality is given as 100%. Moreover, in the assay with Culex pipiens molestus, the mortality at 5 ppm amounted to 100%. The LD50 with Chilo suppressalis [2] amounted to 7.5 mg/kg.
Consider `CC(C)NC(=S)SCC(CSC(=S)NC(C)C)CN(C)C`, for which the mortality at 50 ppm in the assay on Nilaparvata lugens was 100%. Further, the mortality at 500 ppm turned out to be 80% in the assay on Tetranychus urticae and 50% in the assay on Spodoptera litura. In addition, the mortality in the assay on Chilo suppressalis [1] worked out at 100%. For the same compound, the mortality at 5 ppm with Culex pipiens molestus was found to be 100%. Moreover, in the assay with Chilo suppressalis [2], the LD50 was 12.7 mg/kg.
Turning to `CN(C)CC(CSC(=O)c1ccccc1)CSC(=O)c1ccccc1`, in the assay with Nilaparvata lugens, the mortality at 50 ppm came out at 100%. For the same compound, the figures for the mortality at 500 ppm with Tetranychus urticae and with Spodoptera litura were 100% and 10%, respectively. Further, the mortality with Chilo suppressalis [1] is recorded as 100%. Further, the mortality at 5 ppm in the assay with Culex pipiens molestus was found to be 100%. Further, the LD50 in the assay with Chilo suppressalis [2] was found to be 4 mg/kg.
On to `CN(C)C[C@@H]1CCSC(C(=O)c2ccccc2)(C(=O)c2ccccc2)S1`, for which the mortality with Nilaparvata lugens is on record as 90%; in the assay with Tetranychus urticae it was 100%; in the assay with Chilo suppressalis [1], 100%; in the assay on Culex pipiens molestus, 40%; in the assay with Spodoptera litura, 10%. Besides, the LD50 with Chilo suppressalis [2] is 7.1 mg/kg.
With `CN(C)C1CS[S+]([O-])C1.O=C(O)C(=O)O` (centres undefined) [NEREISTOXIN MONOXIDE HYDROGEN OXALATE], the mortality at 50 ppm in the assay on Nilaparvata lugens was 100%. Besides, the mortality at 500 ppm in the assay on Tetranychus urticae stood at 60%; with Spodoptera litura, 30%. Also, the mortality in the assay on Chilo suppressalis [1] was 100%. The mortality at 5 ppm in the assay on Culex pipiens molestus worked out at 50%. In addition, the LD50 with Chilo suppressalis [2] was 5.8 mg/kg.
In the case of `CNC(=O)SCC(CSC(=O)NC)CN(C)C`, the mortality at 50 ppm with Nilaparvata lugens came to 30%. The mortality at 500 ppm in the assay on Tetranychus urticae worked out at 90%; in the assay with Spodoptera litura, 20%. In the assay with Chilo suppressalis [1], the mortality is 100%. The mortality at 5 ppm in the assay with Culex pipiens molestus stood at 100%. Further, the LD50 with Chilo suppressalis [2] came out at 27.1 mg/kg.
